Test results: US20240262795A1, “PYRAZINE COMPOUNDS AS INHIBITORS OF FLT3” (Biomea Fusion, Inc., priority 2021, published 2024)

Tests used:
[1] = test system: MOLM-13; assay: Proliferation inhibition, CellTiter-Glo, MOLM-13; assay type: cell-based, human; settings: Homo sapiens, 96 h; MOLM-13 cells, IC50 (4 days), CellTiter-Glo; read-out: MOLM-13 IC50
Procedure, shortened: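 About 10,000 cells per well in RPMI-1640 with 10% FBS. Compounds added 2 h after seeding at eight concentrations in duplicate (0.2% DMSO as 100% proliferation), then incubated ~96 h at 37° C, 5% CO2. ATP measured by CellTiter-Glo luminescence; IC50 from four-parameter logistic fit.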

[2] = target: T1, Ba/F3 cell lines stably expressing human FLT3-ITD-F691L (Homo sapiens, UniProt P36888, F691L, cells depend on it, form not given); assay: FLT3 mutant assay, cell viability, Ba/F3-FLT3-ITD-F691L; assay type: cell-based, mouse; settings: IC50 (3 days), CellTiter-Glo; read-out: Ba/F3-FLT3-ITD-F691L Relative IC50
T1 construct: Ba/F3-FLT3-ITD-F691L Relative IC50
T1 sequence (P36888 1-993 F691L): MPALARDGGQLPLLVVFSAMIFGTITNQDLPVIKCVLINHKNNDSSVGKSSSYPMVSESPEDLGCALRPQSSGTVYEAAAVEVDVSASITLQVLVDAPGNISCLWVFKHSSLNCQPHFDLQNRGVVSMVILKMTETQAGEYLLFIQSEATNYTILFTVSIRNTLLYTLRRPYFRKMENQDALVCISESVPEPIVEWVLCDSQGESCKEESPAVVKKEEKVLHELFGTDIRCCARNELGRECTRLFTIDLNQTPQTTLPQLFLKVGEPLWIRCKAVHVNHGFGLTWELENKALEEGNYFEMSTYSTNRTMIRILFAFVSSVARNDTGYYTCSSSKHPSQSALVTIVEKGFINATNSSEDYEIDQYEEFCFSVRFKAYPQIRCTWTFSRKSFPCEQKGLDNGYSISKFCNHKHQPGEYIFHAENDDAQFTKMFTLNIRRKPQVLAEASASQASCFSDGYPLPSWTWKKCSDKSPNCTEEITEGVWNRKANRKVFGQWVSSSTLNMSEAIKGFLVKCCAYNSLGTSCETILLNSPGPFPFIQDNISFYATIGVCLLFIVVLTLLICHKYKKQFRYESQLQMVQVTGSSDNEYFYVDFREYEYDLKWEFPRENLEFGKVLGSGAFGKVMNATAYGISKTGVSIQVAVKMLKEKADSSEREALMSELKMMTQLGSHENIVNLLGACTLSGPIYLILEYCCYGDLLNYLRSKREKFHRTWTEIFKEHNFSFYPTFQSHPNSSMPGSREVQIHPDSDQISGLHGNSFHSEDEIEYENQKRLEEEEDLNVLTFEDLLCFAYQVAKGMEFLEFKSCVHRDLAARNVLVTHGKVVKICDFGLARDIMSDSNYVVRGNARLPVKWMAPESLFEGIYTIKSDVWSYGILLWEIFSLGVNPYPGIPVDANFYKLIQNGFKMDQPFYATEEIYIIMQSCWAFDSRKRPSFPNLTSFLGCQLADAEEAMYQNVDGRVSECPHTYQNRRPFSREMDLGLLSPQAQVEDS
Experimental: Activity of compounds on FLT3 activating mutations were assessed using Ba/F3 cell lines (mouse pro-B cell line) stably expressing human FLT3-ITD, FLT3-ITD-D835Y or FLT3-ITD-F691L. […] The supernatant collected were concentrated with PEG8000 and used to infect Ba/F3 cells at 1-5 MOI in serum-free media with polybrene. Infected Ba/F3 cells were selected in presence of puromycin, and surviving cells verified by sequencing and/or protein detection assay. Constitutive expression of the activating kinase transforms the Ba/F3 cells into IL-3-independent growth allowing them to be cultured in the absence of IL-3. […] For use in compound testing, cells in exponential growth phase were harvested, counted, and resuspended at the required cell density. Cell viability assays were performed in 96-well assay plates and 90 μL of cell suspension seeded per well. Serial dilutions of the test compounds and assay controls and were freshly prepared for the assay. Nine-point 3× serial dilutions were prepared in 100% DMSO (400× stock) and subsequently diluted in cell culture media to obtain 10× stocks. Ten microliters of the 10× stock serial dilutions were added to the appropriate wells (triplicate wells per condition) in the assay plate. […] Assay plates were incubated for 3 days in at 37° C. in a humidified incubator with 5% CO2.
Inhibition rate (IR) of the tested compounds was determined by the following formula: IR (%)=(1−(RLU compound−RLU blank)/(RLU control−RLU blank))*100%. The inhibitions of different dose of compound were calculated in Excel file, and the dose responses were analysed using GraphPad Prism to evaluate related parameters, such as Bottom, Top and IC50. For the IC50 analysis by GraphPad Prism, the equation below was used to fit curve: Y=Bottom+(Top−Bottom)/(1+10^((LogIC50−X)*HillSlope))

Row | SMILES | IC50 [1] [nM] | GI50 [2] [nM]
1 | CCc1nc(C(N)=O)c(Nc2cccc(CCNC(=O)[C@H](C)N(C)C(=O)/C=C/CN(C)C)c2)nc1N(C)C(C)C [Compound 204, (S,E)-3-((3-(2-(2-(4-(dimethylamino)-N-methylbut-2-enamido)propanamido)ethyl)phenyl)amino)-6-ethyl-5-(isopropyl(methyl)amino)pyrazine-2-carboxamide] | < 1 | 1 to 10
2 | CCc1nc(C(N)=O)c(Nc2cccc(CCNC(=O)[C@H](C)N(C)C(=O)/C=C/CN(C)C)c2)nc1NC(C)C [Compound 205, (S,E)-3-((3-(2-(2-(4-(dimethylamino)-N-methylbut-2-enamido)propanamido)ethyl)phenyl)amino)-6-ethyl-5-(isopropylamino)pyrazine-2-carboxamide] | < 1 | 1 to 10
3 | CCc1nc(C(N)=O)c(Nc2cccc(CCNC(=O)CN(C)C(=O)/C=C/CN(C)C)c2)nc1C1CC1 [Compound 219, (E)-5-cyclopropyl-3-((3-(2-(2-(4-(dimethylamino)-N-methylbut-2-enamido)acetamido)ethyl)phenyl)amino)-6-ethylpyrazine-2-carboxamide] | < 1 | 1 to 10
4 | Cc1nc(C(N)=O)c(Nc2cccc(CCNC(=O)[C@H](C)N(C)C(=O)/C=C/CN(C)C)c2)nc1N(C)C(C)C [Compound 232, (S, E)-3-((3-(2-(2-(4-(dimethylamino)-N-methylbut-2-enamido)propanamido)ethyl)phenyl)amino)-5-(isopropyl (methyl)amino)-6-methylpyrazine-2-carboxamide] | 1 to 10 | 1 to 10
5 | Cc1nc(C(N)=O)c(Nc2cccc(CCNC(=O)CN(C)C(=O)/C=C/CN(C)C)c2)nc1N(C)C(C)C [Compound 250, (E)-3-((3-(2-(2-(4-(dimethylamino)-N-methylbut-2-enamido)acetamido)ethyl)phenyl)amino)-5-(isopropyl(methyl)amino)-6-methylpyrazine-2-carboxamide] | 1 to 10 | 1 to 10
6 | CCc1nc(C(N)=O)c(Nc2cccc(CCNC(=O)CN(C)C(=O)/C=C/CN(C)C)c2)nc1N(C)CC [Compound 252, (E)-3-((3-(2-(2-(4-(dimethylamino)-N-methylbut-2-enamido)acetamido)ethyl)phenyl)amino)-6-ethyl-5-(ethyl (methyl)amino) pyrazine-2-carboxamide] | < 1 | 1 to 10
7 | CCc1nc(C(N)=O)c(Nc2cccc(CCNC(=O)[C@H](C)N(C)C(=O)/C=C/CNC)c2)nc1N(C)C(C)C [Compound 307, (S,E)-6-ethyl-5-(isopropyl(methyl)amino)-3-((3-(2-(2-(N-methyl-4-(methylamino)but-2-enamido)propanamido)ethyl)phenyl)amino)pyrazine-2-carboxamide] | < 1 | 10 to 100
8 | CCc1nc(C(N)=O)c(Nc2ccnc(CCNC(=O)[C@H](C)N(C)C(=O)/C=C/CN(C)C)c2)nc1C1CC1 [Compound 310, (S,E)-5-cyclopropyl-3-((2-(2-(2-(4-(dimethylamino)-N-methylbut-2-enamido)propanamido)ethyl)pyridin-4-yl)amino)-6-ethylpyrazine-2-carboxamide] | 1 to 10 | 10 to 100

Further lines, with some results ahead:

Row | IC50 [1] [nM] | SMILES | GI50 [2] [nM]
9 | < 1 | CCc1nc(C(N)=O)c(Nc2cccc([C@@H](C)CNC(=O)CN(C)C(=O)/C=C/CN(C)C)c2)nc1C1CC1 [Compound 504, (R,E)-5-cyclopropyl-3-((3-(1-(2-(4-(dimethylamino)-N-methylbut-2-enamido)acetamido)propan-2-yl)phenyl)amino)-6-ethylpyrazine-2-carboxamide] | 1 to 10
10 | < 1 | CCc1nc(C(N)=O)c(Nc2cccc([C@@H](C)CNC(=O)CN(C)C(=O)/C=C/CN3CCC3)c2)nc1C1CC1 [Compound 506, (R,E)-3-((3-(1-(2-(4-(azetidin-1-yl)-N-methylbut-2-enamido)acetamido)propan-2-yl)phenyl)amino)-5-cyclopropyl-6-ethylpyrazine-2-carboxamide] | 1 to 10
11 | < 1 | CCCc1nc(Nc2cccc([C@@H](C)CNC(=O)CN(C)C(=O)/C=C/CN3CCC3)c2)c(C(N)=O)nc1CC [Compound 507, (R,E)-3-((3-(1-(2-(4-(azetidin-1-yl)-N-methylbut-2-enamido)acetamido)propan-2-yl)phenyl)amino)-6-ethyl-5-propylpyrazine-2-carboxamide] | 1 to 10
12 | > 500 | CCc1nc(Nc2cccc([C@@H](C)CNC(=O)CN(C)C(=O)/C=C/CN3CCC3)c2)c(C(N)=O)nc1CC [Compound 508, (R, E)-3-((3-(1-(2-(4-(azetidin-1-yl)-N-methylbut-2-enamido)acetamido)propan-2-yl)phenyl)amino)-5,6-diethylpyrazine-2-carboxamide] | 1 to 10
13 | 1 to 10 | CCc1nc(C(N)=O)c(Nc2cc(F)cc(CCNC(=O)CN(C)C(=O)/C=C/CN3CCC3)c2)nc1C1CC1 [Compound 516, (E)-3-((3-(2-(2-(4-(azetidin-1-yl)-N-methylbut-2-enamido)acetamido)ethyl)-5-fluorophenyl)amino)-5-cyclopropyl-6-ethylpyrazine-2-carboxamide] | 10 to 100
14 | < 1 | CCc1nc(C(N)=O)c(Nc2cccc(CCNC(=O)CN(C)C(=O)/C=C/CN3CCC3)c2)nc1N(C)CC [Compound 516A, (E)-3-((3-(2-(2-(4-(azetidin-1-yl)-N-methylbut-2-enamido)acetamido)ethyl)phenyl)amino)-6-ethyl-5-(ethyl(methyl)amino) pyrazine-2-carboxamide] | 1 to 10
15 | < 1 | CCc1nc(C(N)=O)c(Nc2cccc([C@@H](C)CNC(=O)CN(C)C(=O)/C=C/CN3CCC3)c2)nc1N(C)CC [Compound 518, (R,E)-3-((3-(1-(2-(4-(azetidin-1-yl)-N-methylbut-2-enamido)acetamido)propan-2-yl)phenyl)amino)-6-ethyl-5-(ethyl(methyl)amino)pyrazine-2-carboxamide] | 1 to 10
16 | 1 to 10 | CCOc1nc(Nc2cccc(CCNC(=O)CN(C)C(=O)/C=C/CN3CCC3)c2)c(C(N)=O)nc1CC [Compound 602, (E)-3-((3-(2-(2-(4-(azetidin-1-yl)-N-methylbut-2-enamido)acetamido)ethyl)phenyl)amino)-5-ethoxy-6-ethylpyrazine-2-carboxamide] | 1 to 10
17 | 1 to 10 | CCc1nc(C(N)=O)c(Nc2cccc(CCNC(=O)CN(C)C(=O)/C=C/CN3CCC3)c2)nc1OC(C)C [Compound 603, (E)-3-((3-(2-(2-(4-(azetidin-1-yl)-N-methylbut-2-enamido)acetamido)ethyl)phenyl)amino)-6-ethyl-5-isopropoxypyrazine-2-carboxamide] | 10 to 100
18 | < 1 | CCc1nc(C(N)=O)c(Nc2ccnc(CCNC(=O)[C@H](C)N(C)C(=O)/C=C/CN(C)C)c2)nc1N(C)C(C)C [Compound 605, (S, E)-3-((2-(2-(2-(4-(dimethylamino)-N-methylbut-2-enamido)propanamido)ethyl)pyridin-4-yl)amino)-6-ethyl-5-(isopropyl (methyl)amino) pyrazine-2-carboxamide] | 10 to 100
